Patent EP4722213A1, “NITROGEN-CONTAINING FUNCTIONAL GROUP-SUBSTITUTED PYRIDAZINOPYRIDONE DERIVATIVE AND USE THEREOF” (Sichuan Huiyu Pharmaceutical Co., Ltd., priority 2023, dated 2024)
Like-named read-outs stand apart in the source and are kept apart here.

Assays:
SOS1 = molecular target: T1, SOS1 (Homo sapiens, UniProt Q07889); test: biochemical
T1 sequence (Q07889 1-1333): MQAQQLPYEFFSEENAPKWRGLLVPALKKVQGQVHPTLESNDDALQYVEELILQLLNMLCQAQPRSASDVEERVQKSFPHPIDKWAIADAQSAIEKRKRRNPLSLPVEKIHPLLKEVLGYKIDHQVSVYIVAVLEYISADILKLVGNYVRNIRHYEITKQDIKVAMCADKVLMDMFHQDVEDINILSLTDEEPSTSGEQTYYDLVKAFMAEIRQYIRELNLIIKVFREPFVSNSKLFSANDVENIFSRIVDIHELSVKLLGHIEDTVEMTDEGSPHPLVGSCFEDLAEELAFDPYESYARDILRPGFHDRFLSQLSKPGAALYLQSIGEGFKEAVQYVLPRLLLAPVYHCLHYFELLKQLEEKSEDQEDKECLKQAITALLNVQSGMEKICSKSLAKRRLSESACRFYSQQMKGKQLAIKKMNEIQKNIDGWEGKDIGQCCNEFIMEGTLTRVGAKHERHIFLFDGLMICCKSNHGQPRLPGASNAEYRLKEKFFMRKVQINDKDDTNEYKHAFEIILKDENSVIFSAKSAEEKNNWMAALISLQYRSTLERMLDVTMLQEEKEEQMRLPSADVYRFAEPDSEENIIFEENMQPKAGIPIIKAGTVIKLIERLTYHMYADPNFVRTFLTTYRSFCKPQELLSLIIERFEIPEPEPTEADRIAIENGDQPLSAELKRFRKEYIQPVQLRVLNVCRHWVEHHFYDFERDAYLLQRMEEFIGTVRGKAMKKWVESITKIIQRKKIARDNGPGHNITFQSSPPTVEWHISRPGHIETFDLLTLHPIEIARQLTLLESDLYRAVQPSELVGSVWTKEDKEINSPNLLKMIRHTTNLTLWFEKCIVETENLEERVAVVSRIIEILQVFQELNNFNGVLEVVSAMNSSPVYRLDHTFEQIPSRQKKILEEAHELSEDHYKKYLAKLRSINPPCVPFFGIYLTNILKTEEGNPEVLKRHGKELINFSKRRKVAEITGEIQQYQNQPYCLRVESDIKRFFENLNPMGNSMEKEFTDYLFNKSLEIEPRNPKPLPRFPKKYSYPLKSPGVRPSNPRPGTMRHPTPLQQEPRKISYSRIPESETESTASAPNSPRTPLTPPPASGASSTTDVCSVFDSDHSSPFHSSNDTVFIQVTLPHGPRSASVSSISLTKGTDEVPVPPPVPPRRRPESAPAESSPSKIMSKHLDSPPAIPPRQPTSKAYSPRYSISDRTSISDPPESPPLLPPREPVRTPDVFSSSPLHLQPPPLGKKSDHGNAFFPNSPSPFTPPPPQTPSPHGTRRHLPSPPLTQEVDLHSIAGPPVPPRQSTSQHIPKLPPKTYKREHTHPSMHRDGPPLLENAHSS

CYP2C19 = molecular target: T2, CYP2C19 (Homo sapiens, UniProt P33261); test: Inhibition of hepatic drug-metabolizing enzymes in human liver microsomes; type: in vitro ADME; details: human liver microsomes; read-out: Inhibitory activity on drug-metabolizing enzymes (IC50, µM) CYP2C19
T2 construct: human liver microsomes were used as the CYP450 enzyme source; from tissue; host or cells: human liver microsomes
T2 sequence (P33261 whole entry): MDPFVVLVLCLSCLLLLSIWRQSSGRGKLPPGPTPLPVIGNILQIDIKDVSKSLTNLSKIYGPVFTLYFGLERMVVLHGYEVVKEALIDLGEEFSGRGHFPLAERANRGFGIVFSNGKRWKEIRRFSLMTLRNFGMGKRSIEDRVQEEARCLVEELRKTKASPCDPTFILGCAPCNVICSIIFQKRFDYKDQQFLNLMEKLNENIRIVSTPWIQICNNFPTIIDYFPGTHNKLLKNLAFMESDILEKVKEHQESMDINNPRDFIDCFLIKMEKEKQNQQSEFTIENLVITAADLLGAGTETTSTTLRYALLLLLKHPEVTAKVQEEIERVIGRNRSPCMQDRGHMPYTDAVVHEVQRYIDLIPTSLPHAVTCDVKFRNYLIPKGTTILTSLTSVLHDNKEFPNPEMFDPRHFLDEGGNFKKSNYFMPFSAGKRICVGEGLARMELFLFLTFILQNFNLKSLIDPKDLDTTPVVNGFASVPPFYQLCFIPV
Excerpt: (§1) The main site of drug metabolism is the liver, and the main component of the mixed-function oxidase system present in the liver is the CYP450 enzyme. This enzyme system causes most clinically observed drug-drug interactions, which in turn leads to an increased incidence of adverse drug reactions. CYP450 is a group of supergene family composed of many isozymes, wherein CYP3A4 acts as a major metabolizing enzyme and is involved in the metabolism of nearly half of clinically used drugs. Similarly, CYP2C9 and CYP2C19 also act as important metabolizing enzymes and are involved in the metabolism of various drugs clinically. Therefore, evaluating the risk of drug-drug interactions by testing the inhibitory activity of compounds on CYP450 enzymes at an early stage can improve the safety of medication use.
(§2) In the present disclosure, human liver microsomes were used as the CYP450 enzyme source. The specific probe substrates for each CYP isoenzyme (wherein CYP3A4 used two substrates, midazolam and testosterone, denoted as CYP3A4-M and CYP3A4-T respectively) were incubated with a series of concentrations of the test compound in the presence of the cofactor NADPH. The production amount of metabolites of probe substrates in the incubation system was determined by LC-MS/MS, and the IC50 values of the test compound against each CYP450 enzyme subtype were calculated to evaluate its inhibitory effect on each CYP450 enzyme subtype. During the experiment, 49 µL of PBS, 50 µL of probe substrate, and 50 µL of human liver microsome working solution were sequentially added to the incubation system, followed by the addition of 1 µL of the test compound working solution at each concentration, and the mixture was mixed well. After pre-incubation at 37°C for 5 min, 50 µL of NADPH was added to initiate the reaction. After incubation for the corresponding time, an appropriate amount of ice-cold acetonitrile containing an internal standard was added to terminate the reaction. The mixture was vortexed to mix well, centrifuged, and the supernatant was taken. The supernatant was injected into LC-MS/MS to determine the production amount of metabolites of the probe substrate. Taking the enzyme activity at the 0-concentration point (characterized by the production amount of metabolites) as 100%, the percentage of residual enzyme activity of metabolites at different concentrations of the test compound was calculated. IC50 was calculated by the residual enzyme activity using Graphpad Prism software.

CYP2C9 = molecular target: T3, CYP2C9 (Homo sapiens, UniProt P11712); test: as above; type: in vitro ADME; details: human liver microsomes; read-out: Inhibitory activity on drug-metabolizing enzymes (IC50, µM) CYP2C9
T3 construct: human liver microsomes were used as the CYP450 enzyme source; from tissue; host or cells: human liver microsomes
T3 sequence (P11712 whole entry): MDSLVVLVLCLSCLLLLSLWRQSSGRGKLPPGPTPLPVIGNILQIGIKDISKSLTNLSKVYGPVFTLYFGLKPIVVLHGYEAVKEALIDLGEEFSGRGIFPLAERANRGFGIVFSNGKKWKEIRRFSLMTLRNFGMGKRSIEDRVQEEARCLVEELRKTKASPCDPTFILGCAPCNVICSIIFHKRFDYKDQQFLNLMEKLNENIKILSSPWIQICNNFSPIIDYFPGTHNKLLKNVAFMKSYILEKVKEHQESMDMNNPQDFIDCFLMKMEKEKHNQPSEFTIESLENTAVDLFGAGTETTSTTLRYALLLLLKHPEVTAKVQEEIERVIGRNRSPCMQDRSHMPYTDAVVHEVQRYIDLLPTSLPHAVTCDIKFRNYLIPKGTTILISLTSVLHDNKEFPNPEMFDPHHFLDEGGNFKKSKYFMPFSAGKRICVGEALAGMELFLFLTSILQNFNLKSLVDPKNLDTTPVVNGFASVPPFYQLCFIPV
Excerpt: as §1, §2

[1] = Rat liver microsomal metabolic stability; type: in vitro ADME; details: rat liver microsomes; for half-life at 1 µM: NADPH, 37°C; for CLint scaled at 1 µM: calculated from T1/2, fu defaulted to 1, read-out: CL(liver)
Excerpt: Metabolic stability affects the clearance rate, half-life, and oral bioavailability of compounds in the body, and is one of the most important ADME drug-like properties of compounds. Hepatocyte microsomal stability assay is a commonly used method for studying metabolic stability. In the present disclosure, rat liver microsomes are used to determine and investigate the metabolic stability of compounds.
Preparation of compound stock solution: an appropriate amount of the test compound and testosterone was taken, and a 1 mM stock solution was prepared with DMSO, which was stored in a refrigerator at 4°C.
Preparation of compound working solution: The 1 mM compound stock solution was taken respectively, and then diluted to 100 µM with acetonitrile-water (v:v = 1:1) to obtain the working solution.
Preparation of NADPH working solution: an appropriate amount of NADPH was weighed and dissolved in 16 mM MgCl2 to prepare a NADPH working solution with a concentration of 4.0 mM.
Preparation of rat liver microsome working solution: an appropriate amount of rat liver microsomes was taken and diluted with PBS to obtain a liver microsome working solution with a concentration of 1 mg/mL.
In the incubation system, 48 µL of PBS, 100 µL of rat liver microsome working solution, and 2 µL of the test compound working solution were sequentially added and mixed well. After pre-incubation at 37°C for 5 min, 50 µL of NADPH was added to initiate the reaction. After incubation for the corresponding time points, an appropriate amount of ice-cold acetonitrile containing an internal standard was added to terminate the reaction. The mixture was vortexed to mix well, centrifuged, and the supernatant was collected. The supernatant was injected into LC-MS/MS for detection of the residual metabolic amount of the compound.
Softwares of Excel, etc. were used for data processing according to the following formula. Ct = C0 •e^(−ke •t) [formula] when Ct = (1)/(2)C0 [formula] , T1/2 = (Ln2)/(ke) = (0.693)/(ke) [formula] CLint(mic) = (0.693)/(In vitro T1/2)•(1)/(mg/mL microsomal protein in reaction system) [formula] CLint(liver) = CLint(mic) •(mg microsomes)/(g liver)•(g liver)/(kg body weight) [formula] CL(liver) = (CLint(liver)×fu×Qh)/(CLint(liver)×fu+Qh) [formula] fu (unbound fraction in blood) was defaulted to be 1.

CYP3A4 = molecular target: T4, CYP3A4 (Homo sapiens, UniProt P08684); test: Inhibition of hepatic drug-metabolizing enzymes in human liver microsomes (substrates midazolam and testosterone); type: in vitro ADME
T4 construct: human liver microsomes were used as the CYP450 enzyme source; from tissue; host or cells: human liver microsomes
T4 sequence (P08684 whole entry): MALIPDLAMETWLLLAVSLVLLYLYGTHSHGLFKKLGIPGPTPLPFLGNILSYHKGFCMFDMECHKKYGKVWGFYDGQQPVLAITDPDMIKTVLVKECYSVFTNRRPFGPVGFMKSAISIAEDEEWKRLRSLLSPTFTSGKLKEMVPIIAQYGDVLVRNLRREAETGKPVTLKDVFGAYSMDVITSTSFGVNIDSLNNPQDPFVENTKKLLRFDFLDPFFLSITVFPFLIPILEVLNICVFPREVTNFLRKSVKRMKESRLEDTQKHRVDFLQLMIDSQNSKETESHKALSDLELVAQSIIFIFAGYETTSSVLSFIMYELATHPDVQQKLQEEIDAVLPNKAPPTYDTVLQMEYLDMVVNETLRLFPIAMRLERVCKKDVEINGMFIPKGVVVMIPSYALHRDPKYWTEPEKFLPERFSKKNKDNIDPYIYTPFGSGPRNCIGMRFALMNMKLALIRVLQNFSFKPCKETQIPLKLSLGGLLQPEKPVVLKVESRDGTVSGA
Excerpt: as §1, §2

[2] = Mouse pharmacokinetic test; type: in vivo; details: plasma, female Balb/c mice, IV 1 mg/kg, PO 10 mg/kg via gavage
Method: Female Balb/c mice, weighing 19-21 g, were divided into two groups based on the principle of similar body weight, with 9 mice in each of the IV group and the PO group (for cross blood collection). The IV group was administered the test compound at a dose of 1 mg/kg via intravenous injection, and the PO group was administered the test compound at a dose of 10 mg/kg via gavage. Whole blood was collected from the IV group before administration and at 0.083, 0.25, 0.5, 1, 2, 4, 6, 8, and 24 h after administration; for the PO group, whole blood was collected before administration and at 0.25, 0.5, 1, 2, 4, 6, 8, and 24 h after administration. The blood samples were placed in K2-EDTA anticoagulant tubes, centrifuged (4°C) within 30 minutes to separate plasma, and stored at -80°C for subsequent testing. During sample processing, an appropriate amount of acetonitrile containing an internal standard was used for protein precipitation, vortexed, and after centrifugation, the supernatant was taken for injection into LC-MS/MS for detection. Based on the measured plasma drug concentrations, the main pharmacokinetic parameters were calculated to evaluate its pharmacokinetic behavior. The main pharmacokinetic parameters were analyzed by the non-compartmental model using WinNonLin 8.3 software.

Rat pharmacokinetic test = type: in vivo; details: plasma, male SD rats, IV 1 mg/kg, PO 5 mg/kg via gavage
Method: Male SD rats, weighing 200-250 g, were used and divided into two groups based on the principle of similar body weight, with 3 rats in each of the IV group and the PO group. The IV group was administered the test compound at a dose of 1 mg/kg via intravenous injection, and the PO group was administered the test compound at a dose of 5 mg/kg via gavage. Whole blood was collected from the IV group respectively before administration and at 0.083, 0.25, 0.5, 1, 2, 4, 6, 8, and 24 h after administration; for the PO group, whole blood was collected before administration and at 0.25, 0.5, 1, 2, 4, 6, 8, and 24 h after administration. The blood samples were placed in K2-EDTA anticoagulant tubes, centrifuged (4°C) within 30 min to separate plasma, and stored at -80°C for subsequent testing. During sample processing, an appropriate amount of acetonitrile containing an internal standard was used for protein precipitation, vortexed, and after centrifugation, the supernatant was taken for injection into LC-MS/MS for detection. Based on the measured plasma drug concentrations, the main pharmacokinetic parameters were calculated to evaluate its pharmacokinetic behavior. The main pharmacokinetic parameters were analyzed by the non-compartmental model using WinNonLin 8.3 software.

[3] = substrate midazolam, read-out: Inhibitory activity on drug-metabolizing enzymes (IC50, µM) CYP3A4-M
[4] = substrate testosterone, read-out: Inhibitory activity on drug-metabolizing enzymes (IC50, µM) CYP3A4-T

| SMILES | IC50 (SOS1) [µM] | IC50 (CYP2C19) [µM] | IC50 (CYP2C9) [µM] | half-life at 1 µM [1] [h] | CLint scaled at 1 µM [1] [mL/min/kg] | IC50 (CYP3A4; [3]) [µM] | IC50 (CYP3A4; [4]) [µM] | bioavailability [2] [%] | bioavailability (Rat pharmacokinetic test) [%] | IC50 (CYP3A4; Inhibitory activity on drug-metabolizing enzymes (IC50, µM) CYP3A4-M, substrate midazolam) [µM] | IC50 (CYP3A4; Inhibitory activity on drug-metabolizing enzymes (IC50, µM) CYP3A4-T, substrate testosterone) [µM] |
| --- | --- | --- | --- | --- | --- | --- | --- | --- | --- | --- | --- |
| C[C@@H](Nc1nnc(N)c2cc(=O)n(C3CC3)cc12)c1cccc(C(F)F)c1F [Example 75, (R)-1-amino-6-cyclopropyl-4-((1-(3-(difluoromethyl)-2-fluorophenyl)ethyl)amino)pyrido[3,4-d]pyridazin-7(6H)-one] | 0.0048 | > 10 | > 10 | > 5 | < 7.23 | > 10 | > 10 | – | – | – | – |
| Cc1c(C#N)cccc1[C@@H](C)Nc1nnc(C)c2cnc(N3CCOCC3)cc12 [MRTX0902, reference compound] | – | 8.62 | 4 | 0.0483 | 51.9 | – | – | 40.4 | 22.6 | 6.9 | 8.75 |
| CNc1nnc(N[C@H](C)c2cccc(C(F)F)c2F)c2cn(C3CC3)c(=O)cc12 [Example 13, (R)-6-cyclopropyl-4-((1-(3-(difluoromethyl)-2-fluorophenyl)ethyl)amino)-1-(methylamino)pyrid o[3,4-d]pyridazin-7(6H)-one] | 0.0046 | > 10 | > 10 | 3.97 | 8.8 | > 10 | > 10 | – | – | – | – |
| C[C@@H](Nc1nnc(N)c2cc(=O)n(C3(C)CC3)cc12)c1cccc(C(F)F)c1F.O=CO [Example 74, (R)-1-amino-4-((1-(3-(difluoromethyl)-2-fluorophenyl)ethyl)amino)-6-(1-methylcyclopropyl) pyrido[3,4-d]pyridazin-7(6H)-one formate] | 0.0046 | > 10 | > 10 | > 5 | < 7.23 | > 10 | > 10 | – | – | – | – |
